Experiments:
[1] = test system: Pseudomonas aeruginosa; assay: Antibiofilm activity against Pseudomonas aeruginosa PAO1 assessed as inhibition of biofilm formation at 100 microg/ml relative to control; assay type: functional; set-up: scale not given: the % may be the effect or the level left; conditions: dose 100 µg/ml
[2] = test system: Klebsiella pneumoniae; assay: Antibiofilm activity against Klebsiella pneumoniae ATCC 13882 assessed as inhibition of biofilm formation incubated for 24 hrs by crystal violet staining based broth microdilution method; assay type: functional, organism-based; conditions: ATCC 13882, 24 h
[3] = test system: Staphylococcus aureus; assay: Antibiofilm activity against methicillin-resistant Staphylococcus aureus assessed as inhibition of biofilm formation incubated for 8 hrs by crystal violet staining based analysis; assay type: functional, organism-based
[4] = test system: Staphylococcus aureus; assay: Antibacterial activity against Staphylococcus aureus assessed as bacterial growth inhibition; assay type: functional, organism-based
[5] = test system: Enterococcus faecium; assay: Antibacterial activity against Vancomycin-resistant Enterococcus faecium ATCC 51559 assessed as reduction in bacterial growth incubated for 18 hrs by spectrophotometry based analysis; assay type: functional, organism-based; conditions: ATCC 51559, 18 h
[6] = test system: Pseudomonas aeruginosa; assay: Antibiofilm activity against Pseudomonas aeruginosa assessed as reduction in biofilm formation incubated for 24 hrs by microscopic analysis; assay type: functional, organism-based
[7] = target: T1, Transcriptional regulator MvfR (Pseudomonas aeruginosa PA14, UniProt A0A072ZLE6); assay: Antagonist activity at PqsR in wild-type Pseudomonas aeruginosa PAO1-L
T1 sequence (A0A072ZLE6 whole entry): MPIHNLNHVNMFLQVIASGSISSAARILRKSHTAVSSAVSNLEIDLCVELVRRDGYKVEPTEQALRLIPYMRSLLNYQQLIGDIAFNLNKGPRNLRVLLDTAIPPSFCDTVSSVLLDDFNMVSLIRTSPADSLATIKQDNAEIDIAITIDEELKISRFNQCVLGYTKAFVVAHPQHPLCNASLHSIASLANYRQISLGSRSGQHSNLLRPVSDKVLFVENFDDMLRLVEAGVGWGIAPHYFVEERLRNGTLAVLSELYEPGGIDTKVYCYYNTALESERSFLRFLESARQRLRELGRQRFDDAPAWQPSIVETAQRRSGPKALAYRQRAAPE

[8] = test system: Pseudomonas aeruginosa; assay: Antibiofilm activity against Pseudomonas aeruginosa ATCC 27853 assessed as reduction in biofilm formation at 1/6 times of MIC after 24 hrs by crystal violet staining based assay; assay type: functional; set-up: scale not given: the % may be the effect or the level left
[9] = Inhibition of quorum sensing system in Pseudomonas aeruginosa PAO1 assessed as inhibition of pyocyanin production at 256 ug/ml incubated for 24 hrs by absorbance based assay; conditions: dose 256.0 µg/ml
[10] = test system: Pseudomonas aeruginosa; assay: Antibiofilm activity against Pseudomonas aeruginosa PAO1 assessed as inhibition of biofilm formation at 64 microg/ml incubated for 24 hrs by BacTiter Glo reagent based luminescence analysis relative to control; assay type: functional; set-up: scale not given: the % may be the effect or the level left; conditions: dose 64 µg/ml
[11] = test system: Pseudomonas aeruginosa; assay: Antibiofilm activity against Pseudomonas aeruginosa PAO1 assessed as inhibition of biofilm formation incubated at 50 uM incubated for 24 hrs by crystal violet staining based analysis relative to control; assay type: functional; set-up: scale not given: the % may be the effect or the level left
[12] = test system: Pseudomonas aeruginosa; assay: Antibiofilm activity against Pseudomonas aeruginosa PAO1 assessed as inhibition of biofilm formation at 10 microg/ml relative to control; assay type: functional; set-up: scale not given: the % may be the effect or the level left; conditions: dose 10 µg/ml
[13] = test system: Pseudomonas aeruginosa; assay: Antimicrobial activity against Pseudomonas aeruginosa PAO1 assessed as inhibition of microbial growth by microdilution broth method; assay type: functional
[14] = test system: Staphylococcus aureus; assay: Antimicrobial activity against methicillin-sensitive Staphylococcus aureus ATCC 35556 assessed as reduction in microbial growth incubated for 24 hrs by broth microdilution method; assay type: functional, organism-based; conditions: ATCC 35556, 24 h
[15] = test system: Staphylococcus aureus; assay: Antimicrobial activity against methicillin-resistant Staphylococcus aureus ATCC 43866 assessed as reduction in microbial growth incubated for 24 hrs by broth microdilution method; assay type: functional, organism-based; conditions: ATCC 43866, 24 h
[16] = test system: Staphylococcus aureus; assay: Antibiofilm activity against Staphylococcus aureus ATCC 25923 at 25 ug/ml measured after 24 hrs by crystal violet staining based analysis relative to control; assay type: functional; conditions: dose 25 µg/ml
[17] = test system: Staphylococcus aureus; assay: Antibacterial activity against Staphylococcus aureus ATCC 25923 assessed as bacterial growth inhibition measured after 18 hrs by CLSI protocol based two-fold serial microdilution method; assay type: functional, organism-based; conditions: ATCC 25923, 18 h
[18] = test system: Acinetobacter baumannii; assay: Antibacterial activity against Acinetobacter baumannii ATCC 19606 assessed as growth inhibition incubated for 18 hrs by resazurin dye based assay; assay type: functional, organism-based; conditions: ATCC 19606, 18 h
[19] = target: T1, Transcriptional regulator MvfR; assay: Antagonist activity at PqsR in wild-type Pseudomonas aeruginosa PAO1 assessed as reduction in AQ level at 0.2 uM by LCMS/MS analysis
[20] = target: T1, Transcriptional regulator MvfR; assay: Inhibition of PqsR-mediated quorum sensing system in Pseudomonas aeruginosa PAO1 assessed as reduction in pyocyanin production
[21] = test system: Pseudomonas aeruginosa; assay: Antibiofilm activity against Pseudomonas aeruginosa PAO1 assessed as reduction in biofilm formation at 50 uM relative to control; assay type: functional; set-up: scale not given: the % may be the effect or the level left
[22] = test system: Pseudomonas aeruginosa; assay: Antibiofilm activity against Pseudomonas aeruginosa PAO1 assessed as reduction in biofilm formation at 12.5 uM relative to control; assay type: functional; set-up: scale not given: the % may be the effect or the level left
[23] = test system: Pseudomonas aeruginosa; assay: Antibiofilm activity against Pseudomonas aeruginosa PAO1 assessed as reduction in biofilm formation at 25 uM relative to control; assay type: functional; set-up: scale not given: the % may be the effect or the level left
[24] = Inhibition of quorum sensing system in Pseudomonas aeruginosa PAO1 assessed as inhibition of pyocyanin production at 12.5 uM incubated for 24 hrs by absorbance based assay relative to control
[25] = target: T1, Transcriptional regulator MvfR; assay: Antagonist activity at PqsR in wild-type Pseudomonas aeruginosa PA14 assessed as reduction in AQ level at 0.2 uM by LCMS/MS analysis
[26] = test system: Staphylococcus aureus; assay: Antimicrobial activity against Staphylococcus aureus ATCC 25923 assessed as reduction in bacterial growth at 0.25 uM incubated for 16 hrs by broth dilution method relative to control; assay type: functional; set-up: scale not given: the % may be the effect or the level left
[27] = test system: Staphylococcus aureus; assay: Antimicrobial activity against Staphylococcus aureus ATCC 25923 assessed as reduction in bacterial growth at 0.12 uM incubated for 16 hrs by broth dilution method relative to control; assay type: functional; set-up: scale not given: the % may be the effect or the level left
[28] = test system: Staphylococcus aureus; assay: Antimicrobial activity against Staphylococcus aureus ATCC 25923 assessed as reduction in bacterial growth at 0.5 uM incubated for 16 hrs by broth dilution method relative to control; assay type: functional; set-up: scale not given: the % may be the effect or the level left
[29] = test system: Pseudomonas aeruginosa; assay: Antibiofilm activity against Pseudomonas aeruginosa PAO1 assessed as reduction in biofilm formation at 100 uM incubated for 24 hrs by crystal violet staining based analysis relative to control; assay type: functional; set-up: scale not given: the % may be the effect or the level left
[30] = Inhibition of quorum sensing system in Pseudomonas aeruginosa PA14 assessed as inhibition of pyocyanin production

## COc1ccccc1/C=C/C(=O)c1ccccc1O
[1]
  Activity: 57%

## Nc1nccc(-c2cccc(NC(=O)c3cc(Cl)cc(Cl)c3)c2)n1
[2]
  IC50: 26.4 µM

## Nc1nc2cc(NC(=O)c3c(Cl)c(Cl)c(Cl)c(Cl)c3C(=O)O)ccc2[nH]1
[3]
  IC50: 1.5 µM
[4]
  EC50: < 8 µM
[5]
  EC50: 75 µM

## Nc1nc2ccccc2[nH]1
[6]
  IC50: 47 µM

## CCCCCCCCCc1nc2cc(F)ccc2c(=O)n1N
[7]
  IC50: 1.2 µM

## COc1ccc(CC(=O)OC2OC(=O)C(Br)=C2Br)cc1OC (configuration not stated)
[8]
  Activity: 63%

## O=C(CCCCCOc1cccc(C(F)(F)F)c1)NNC(=O)Cn1c(=O)oc2ccccc21
[9]
  inhibition: 63%
[10]
  Activity: 45%

## O=C(CCCCCCCCCN=C=S)CC(=O)N[C@H]1CCOC1=O
[11]
  Activity: 50%

## O=C(/C=C/c1ccc(O)c(O)c1)OCCc1ccc(Br)cc1
[12]
  Activity: 33.69%
[13]
  MIC: > 512 µM

## Cn1c(C(=O)N/N=C/c2ccc(Oc3c(Cl)cccc3Cl)cc2)cc(Br)c1Br
[14]
  IC50: 0.39 µg/mL
[15]
  IC50: 0.78 µg/mL

## Cc1nn(C)c(NC(=O)c2ccc([N+](=O)[O-])cc2)c1[N+]#N
[16]
  Activity: 96%

## C/C(=C\c1ccccc1)Cn1cc(CCCCCc2c[nH]c(N)n2)nn1
[17]
  IC50: 0.81 µM
[18]
  IC50: 0.98 µM

## N#CCc1ccc(OC[C@H](O)Cn2cnc3ccc(Cl)cc3c2=O)cc1
[19]
  IC50: 1.1 µM

## Clc1ccc2c(NCCCCCCCCNCc3cc4ccccc4o3)ccnc2c1
[20]
  IC50: 25 µM

## CCCCCCSSc1nc2ccccc2c(=O)[nH]1
[21]
  Activity: 46%
[22]
  Activity: 38%
[23]
  Activity: 43%
[24]
  inhibition: 94%

## CCCCCCCCCc1nc2cc(Cl)ccc2c(=O)n1N
[7]
  IC50: 1.2 µM

## O=CN1N=C(c2ccccc2)CC1c1cccc(Nc2ccnc3cc(Cl)ccc23)c1 (configuration not stated)
[19]
  IC50: 12.4 µM
[25]
  IC50: 2.3 µM

## Cc1ccc(C(=O)c2nn(-c3nc(-c4ccccc4)c(-c4sc(-n5nc(C(=O)c6ccc(C(F)(F)F)cc6)c(C(N)=O)c5N)nc4-c4ccccc4)s3)c(N)c2C(N)=O)cc1
[26]
  Activity: 50%
[27]
  Activity: 35%
[28]
  Activity: 77%

## O=C(CCCOc1cccc(Br)c1)NC1CCSC1=O (configuration not stated)
[29]
  Activity: 62%
[30]
  IC50: 8 µM

From ChEMBL document CHEMBL5512599, “Synthetic non-toxic anti-biofilm agents as a strategy in combating bacterial resistance” (Eur J Med Chem, 2023)
